Reference: article PMC10057887, “Analysis of Essential Isoprene Metabolic Pathway Proteins in Variovorax sp. Strain WS11” (Applied and Environmental Microbiology, 2023)

Experiments:
[1] = test system: AD45-AldH; test: NADH formation at […] nm, substrate inhibition model at high concentrations; format: biochemical, Rhodococcus sp. AD45; details: NAD+ 5 mM, 50 mM sodium carbonate pH 10.0, racemic substrate
[2] = test system: T1, WS11-AldH; test: as above; format: biochemical, Variovorax sp. WS11; details: NAD+ 5 mM, 50 mM sodium carbonate pH 10.0, racemic substrate
T1 construct: isoprene cluster copy, on megaplasmid

[3] = test system: T1, WS11-AldH; test: NADH formation at […] nm, Michaelis-Menten fit; format: biochemical, Variovorax sp. WS11; details: NAD+ 5 mM, 50 mM sodium carbonate pH 10.0
[4] = test system: AD45-AldH; test: NADH formation at […] nm, Michaelis-Menten fit; format: biochemical, Rhodococcus sp. AD45; details: NAD+ 5 mM, 50 mM sodium carbonate pH 10.0

| Km [1] [µM] | Km [2] [µM] | Km [3] [µM] | Km [4] [µM] | Km ([3]; predicted Km, not saturated at 10 mM) [µM] | Compound |
| --- | --- | --- | --- | --- | --- |
| 30 | 120 | – | – | – | CCC(C)C=O (racemic) [2-methylbutanal] |
| – | – | 690 | 80 | – | CCCC=O [butanal] |
| – | – | – | 570 | ~10900 | CCC=O [propanal] |
